Laboratory results from patent publication US20060189546A1, “Compounds for treating autoimmune and demyelinating diseases” (priority 2005, published 2006).

Tested on: colorectal cancer cell lines (HT29 & HCT116)
Assay: Microarray gene expression, cells grown with Symadex at the GI50 concentration
Type: cell-based, human
Source text: Two colorectal cancer cell lines (HT29 & HCT116) were chosen for study, whose behavior as rapidly proliferating invasive cells could be generalized to many other such cell types from different tissue origins. The two lines were immortalized colon carcinomas. Their gene expression patterns are known to mimic the behavior of neuro-enteric cells and therefore provide an appropriate simulation of the kinds of regulatory patterns that would be found in cells of similar epithelial or endothelial origin. Cells with these ontological roots are also suitable models for the kinds of autoimmune and inflammatory susceptibilities that are common in tissues of neuroenteric origin, such as those in which inflammatory bowel disease would present itself.
Frozen cell pellets were lysed in triplicate and total RNA isolated by purification over spin columns (all reagents from Ambion). After QC acceptance for purity, total RNA was converted to cRNA by linear amplification and 10 μg samples were applied to CodeLink Human Whole Genome Bioarrays (GE Healthcare and GenUs Biosystems).
Arrays were processed in triplicate and comparisons made after robust statistical analysis of replicate variability. […] False discovery rates and representation in standardized gene ontologies/pathways were then determined by filtering the “fold” changes in expression with open access software packages, EASE and GoMiner, and with Pathways Analysis (Ingenuity Systems). Functional annotations were then explored further in the MedMiner literature search environment.
A listing of these is shown in Table 3, in which the first column data presents the fold change against control, the second column cites the gene symbol, the third column cites the Genbank Accession, and the fourth column provides an abridged description of the gene's function.

CCN(CC)CCNc1ccc2ncn3c4ccc(O)cc4c(=O)c1c23 [Symadex™, 5-[[(diethylamino)ethyl]amino]-8-hydroxyimidazo[4,5,1-de]-acridine-6-one]
Mean fold change over control: GGH (NM_003878): −1.96 | Mean fold change over control: MPZL1 (NM_003953): −2.04 | Mean fold change over control: C3AR1 (NM_004054): −15.52 | Mean fold change over control: EIF2S1 (NM_004094): −2.13 | Mean fold change over control: FEN1 (NM_004111): −2.87 | Mean fold change over control: SLC1A2 (NM_004171): −11.21 | Mean fold change over control: SLC9A3 (NM_004174): −15.57 | Mean fold change over control: SNRPD3 (NM_004175): −2.31 | Mean fold change over control: CDKL1 (NM_004196): −8.14 | Mean fold change over control: PTTG1 (NM_004219): −2.43 | Mean fold change over control: SLC22A13 (NM_004256): −11.51 | Mean fold change over control: BAG2 (NM_004282): −2.22 | Mean fold change over control: BAD (NM_004322): −2.08 | Mean fold change over control: ERH (NM_004450): −3.39 | Mean fold change over control: KCNQ2 (NM_004518): −24.13 | Mean fold change over control: MYBPC2 (NM_004533): −21.22 | Mean fold change over control: SPOCK (NM_004598): −6.57 | Mean fold change over control: NMI (NM_004688): −2.41 | Mean fold change over control: CCNB2 (NM_004701): −2.51 | Mean fold change over control: PDCD5 (NM_004708): −2.21 | Mean fold change over control: ZW10 (NM_004724): −2.31 | Mean fold change over control: DDX1 (NM_004939): −2.09 | Mean fold change over control: IBSP (NM_004967): −58.56 | Mean fold change over control: CCL23 (NM_005064): −12.99 | Mean fold change over control: COX6A2 (NM_005205): −23.19 | Mean fold change over control: GJB5 (NM_005268): −62.09 | Mean fold change over control: GPR15 (NM_005290): −80.43 | Mean fold change over control: GPR24 (NM_005297): −13.80 | Mean fold change over control: SULT1E1 (NM_005420): −10.91 | Mean fold change over control: RQCD1 (NM_005444): −2.38 | Mean fold change over control: ZNF265 (NM_005455): −2.03 | Mean fold change over control: STMN1 (NM_005563): −2.41 | Mean fold change over control: LCP2 (NM_005565): −11.85 | Mean fold change over control: VDAC3 (NM_005662): −2.22 | Mean fold change over control: D8S2298E (NM_005671): −1.88 | Mean fold change over control: SCAMP3 (NM_005698): −2.00 | Mean fold change over control: THOC4 (NM_005782): −3.41 | Mean fold change over control: KLRG1 (NM_005810): −24.24 | Mean fold change over control: DSCR1L1 (NM_005822): −9.75 | Mean fold change over control: MSLN (NM_005823): −17.46 | Mean fold change over control: SLC35B1 (NM_005827): −2.23 | Mean fold change over control: CD5L (NM_005894): −13.25 | Mean fold change over control: MCM6 (NM_005915): −1.97 | Mean fold change over control: MCM7 (NM_005916): −2.69 | Mean fold change over control: CD164 (NM_006016): −2.14 | Mean fold change over control: DLEU2 (NM_006021): −3.39 | Mean fold change over control: C10ORF7 (NM_006023): −2.11 | Mean fold change over control: NFATC1 (NM_006162): −16.69 | Mean fold change over control: TIMM23 (NM_006327): −2.02 | Mean fold change over control: PPIH (NM_006347): −2.49 | Mean fold change over control: SYNCRIP (NM_006372): −2.23 | Mean fold change over control: SSSCA1 (NM_006396): −2.20 | Mean fold change over control: RNASEH2A (NM_006397): −2.31 | Mean fold change over control: SIVA (NM_006427): −2.78 | Mean fold change over control: USP16 (NM_006447): −66.26 | Mean fold change over control: PAICS (NM_006452): −2.03 | Mean fold change over control: RPC62 (NM_006468): −2.22 | Mean fold change over control: PIR51 (NM_006479): −3.73 | Mean fold change over control: FARS1 (NM_006567): −2.11 | Mean fold change over control: RBBP9 (NM_006606): −8.81 | Mean fold change over control: NMU (NM_006681): −2.12 | Mean fold change over control: U2AF1 (NM_006758): −1.99 | Mean fold change over control: PRSS21 (NM_006799): −22.21 | Mean fold change over control: KIF2C (NM_006845): −2.52 | Mean fold change over control: CENTA1 (NM_006869): −19.89 | Mean fold change over control: TRH (NM_007117): −8.14 | Mean fold change over control: ZNF258 (NM_007167): −2.66 | Mean fold change over control: DUSP12 (NM_007240): −2.18 | Mean fold change over control: HSGT1 (NM_007265): −2.08 | Mean fold change over control: DTYMK (NM_012145): −3.07 | Mean fold change over control: TPSD1 (NM_012217): −13.71 | Mean fold change over control: TFEC (NM_012252): −20.30 | Mean fold change over control: RAD54B (NM_012415): −2.04 | Mean fold change over control: SPO11 (NM_012444): −14.75 | Mean fold change over control: TIMM10 (NM_012456): −2.23 | Mean fold change over control: UMPK (NM_012474): −1.92 | Mean fold change over control: HMMR (NM_012484): −2.94 | Mean fold change over control: DNAJD1 (NM_013238): −2.24 | Mean fold change over control: TAC3 (NM_013251): −12.26 | Mean fold change over control: RACGAP1 (NM_013277): −2.31 | Mean fold change over control: ALG5 (NM_013338): −2.71 | Mean fold change over control: ANAPC4 (NM_013367): −1.92 | Mean fold change over control: NRG1 (NM_013956): −17.54 | Mean fold change over control: SLC27A6 (NM_014031): −18.72 | Mean fold change over control: MRPL13 (NM_014078): −2.16 | Mean fold change over control: TMEM4 (NM_014255): −2.21 | Mean fold change over control: PLK4 (NM_014264): −2.39 | Mean fold change over control: ITGB3BP (NM_014288): −2.73 | Mean fold change over control: SULT4A1 (NM_014351): −293.18 | Mean fold change over control: ZNRD1 (NM_014596): −2.17 | Mean fold change over control: MEA (NM_014623): −2.39 | Mean fold change over control: DCLRE1A (NM_014881): −3.14 | Mean fold change over control: KIAA0089 (NM_015141): −7.23 | Mean fold change over control: RCOR1 (NM_015156): −7.09 | Mean fold change over control: ARL6IP (NM_015161): −2.29 | Mean fold change over control: EGFL6 (NM_015507): −28.71 | Mean fold change over control: GMNN (NM_015895): −2.81 | Mean fold change over control: MRPL11 (NM_016050): −2.97 | Mean fold change over control: MYO15A (NM_016239): −50.59 | Mean fold change over control: DNAJB11 (NM_016306): −2.15 | Mean fold change over control: POLR3K (NM_016310): −2.24 | Mean fold change over control: NR2E3 (NM_016346): −14.89 | Mean fold change over control: WWOX (NM_016373): −2.07 | Mean fold change over control: RNF141 (NM_016422): −2.29 | Mean fold change over control: POLA (NM_016937): −1.88 | Mean fold change over control: PDE11A (NM_016953): −16.85 | Mean fold change over control: MRPL39 (NM_017446): −2.20 | Mean fold change over control: LIMS2 (NM_017980): −57.61 | Mean fold change over control: FAIM (NM_018147): −3.32 | Mean fold change over control: LPAAT-E (NM_018361, first entry): −11.94 | Mean fold change over control: LPAAT-E (NM_018361, second entry): −2.40 | Mean fold change over control: SIAT7A (NM_018414): −11.76 | Mean fold change over control: LRP1B (NM_018557): −15.01 | Mean fold change over control: TCP11 (NM_018679): −9.82 | Mean fold change over control: BCAP29 (NM_018844): −2.17 | Mean fold change over control: GDAP1 (NM_018972): −2.44 | Mean fold change over control: ROBO4 (NM_019055): −11.95 | Mean fold change over control: POLE4 (NM_019896): −2.04 | Mean fold change over control: SARA1 (NM_020150): −2.14 | Mean fold change over control: RAD18 (NM_020165): −2.28 | Mean fold change over control: MRPL1 (NM_020236): −2.02 | Mean fold change over control: NUP107 (NM_020401): −2.68 | Mean fold change over control: KCNJ12 (NM_021012): −15.93 | Mean fold change over control: MRPL23 (NM_021134): −2.29 | Mean fold change over control: ATP2B3 (NM_021949): −9.43 | Mean fold change over control: NUCKS (NM_022731): −2.02 | Mean fold change over control: MIS12 (NM_024039): −2.20 | Mean fold change over control: SUV39H2 (NM_024670): −2.33 | Mean fold change over control: TXNDC (NM_030755): −2.13 | Mean fold change over control: PHAX (NM_032177): −2.17 | Mean fold change over control: PCDH7 (NM_032457): −19.65 | Mean fold change over control: GPR54 (NM_032551): −2.56 | Mean fold change over control: PHF5A (NM_032758): −2.95 | Mean fold change over control: SYNE1 (NM_033071): −1481.77 | Mean fold change over control: SLC7A13 (NM_138817): −27.75 | Mean fold change over control: BBS2 (T26496): −23.65 | number of down-regulated genes significantly represented in both cell types (array of 55,000 gene fragment accessions): 271
